The values below come from ChEMBL document CHEMBL3991601, “The target landscape of clinical kinase drugs” (Science, 2017).

Activity calls are given as the source filed them.

Assay [1] addresses T1, AarF domain-containing protein kinase 1 (Homo sapiens, UniProt Q86TW2).
T1 sequence (Q86TW2 whole entry): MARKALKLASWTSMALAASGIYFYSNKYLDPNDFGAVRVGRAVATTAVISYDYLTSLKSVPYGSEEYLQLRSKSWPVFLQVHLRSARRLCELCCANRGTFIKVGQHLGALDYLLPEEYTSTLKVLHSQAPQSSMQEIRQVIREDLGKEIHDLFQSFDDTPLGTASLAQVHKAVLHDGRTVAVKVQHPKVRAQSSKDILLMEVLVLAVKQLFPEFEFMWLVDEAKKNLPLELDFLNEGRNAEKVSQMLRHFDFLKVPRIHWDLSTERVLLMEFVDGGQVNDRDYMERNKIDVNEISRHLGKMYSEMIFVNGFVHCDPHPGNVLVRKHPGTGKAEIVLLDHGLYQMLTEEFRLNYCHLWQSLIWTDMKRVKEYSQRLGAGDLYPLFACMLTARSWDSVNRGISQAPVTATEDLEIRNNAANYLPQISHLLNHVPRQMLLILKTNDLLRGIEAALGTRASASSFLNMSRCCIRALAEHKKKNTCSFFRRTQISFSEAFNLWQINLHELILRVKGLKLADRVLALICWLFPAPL

The target of assay [2] is T2, Aurora kinase A (Homo sapiens, UniProt O14965).
T2 sequence (O14965 whole entry): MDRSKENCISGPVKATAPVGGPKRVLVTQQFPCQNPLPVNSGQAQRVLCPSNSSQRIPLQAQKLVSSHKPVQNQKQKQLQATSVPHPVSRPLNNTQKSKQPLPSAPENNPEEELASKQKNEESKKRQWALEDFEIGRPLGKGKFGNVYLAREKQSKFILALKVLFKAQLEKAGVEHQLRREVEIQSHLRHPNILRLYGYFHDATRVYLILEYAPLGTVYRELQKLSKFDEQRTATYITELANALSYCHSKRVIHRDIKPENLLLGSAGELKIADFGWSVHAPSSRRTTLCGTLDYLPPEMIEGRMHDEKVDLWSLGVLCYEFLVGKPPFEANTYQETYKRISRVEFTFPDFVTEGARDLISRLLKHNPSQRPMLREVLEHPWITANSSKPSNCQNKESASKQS

Assay [3] concerns the target Serine/threonine-protein kinase B-raf (Homo sapiens, UniProt P15056).
Assay [4] has as its target T3, Calcium/calmodulin-dependent protein kinase type IV (Homo sapiens, UniProt Q16566).
T3 sequence (Q16566 whole entry): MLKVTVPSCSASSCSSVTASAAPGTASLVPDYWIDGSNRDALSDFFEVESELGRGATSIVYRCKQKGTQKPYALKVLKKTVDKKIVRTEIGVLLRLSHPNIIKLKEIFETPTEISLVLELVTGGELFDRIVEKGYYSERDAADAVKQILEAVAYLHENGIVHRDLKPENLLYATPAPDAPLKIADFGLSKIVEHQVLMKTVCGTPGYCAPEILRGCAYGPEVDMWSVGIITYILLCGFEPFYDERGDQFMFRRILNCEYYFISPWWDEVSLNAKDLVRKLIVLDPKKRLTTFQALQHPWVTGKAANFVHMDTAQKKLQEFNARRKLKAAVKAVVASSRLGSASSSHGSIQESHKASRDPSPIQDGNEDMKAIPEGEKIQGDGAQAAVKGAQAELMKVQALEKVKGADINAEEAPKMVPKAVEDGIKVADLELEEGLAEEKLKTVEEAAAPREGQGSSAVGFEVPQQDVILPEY

The target of assay [5] is Chromodomain-helicase-DNA-binding protein 4 (Homo sapiens, UniProt Q14839).
For assay [6], the target named is T4, Phenylalanine--tRNA ligase beta subunit (Homo sapiens, UniProt Q9NSD9).
T4 sequence (Q9NSD9 whole entry): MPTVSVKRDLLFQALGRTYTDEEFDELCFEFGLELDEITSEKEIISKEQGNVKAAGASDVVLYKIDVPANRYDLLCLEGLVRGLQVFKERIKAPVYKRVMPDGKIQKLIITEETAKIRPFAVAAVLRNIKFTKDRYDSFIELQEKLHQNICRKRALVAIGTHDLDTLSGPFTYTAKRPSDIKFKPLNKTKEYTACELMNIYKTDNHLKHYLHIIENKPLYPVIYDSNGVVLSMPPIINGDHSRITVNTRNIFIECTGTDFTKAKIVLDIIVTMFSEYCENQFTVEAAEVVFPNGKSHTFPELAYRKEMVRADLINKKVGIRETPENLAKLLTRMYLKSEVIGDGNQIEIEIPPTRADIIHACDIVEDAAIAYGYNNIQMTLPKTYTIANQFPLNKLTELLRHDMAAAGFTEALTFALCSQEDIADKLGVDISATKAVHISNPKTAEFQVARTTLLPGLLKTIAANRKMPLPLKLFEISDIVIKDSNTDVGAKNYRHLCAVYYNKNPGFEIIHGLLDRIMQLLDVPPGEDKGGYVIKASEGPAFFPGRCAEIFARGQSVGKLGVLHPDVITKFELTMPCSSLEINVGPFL

Assay [7] has as its target cAMP-dependent protein kinase catalytic subunit gamma (Homo sapiens, UniProt P22612).
Assay [8] deals with cAMP-dependent protein kinase type II-alpha regulatory subunit (Homo sapiens, UniProt P13861).
Note: in the data inactive means no Kd found up to 30 µM.

Chain of cAMP-dependent protein kinase catalytic subunit gamma (P22612 whole entry): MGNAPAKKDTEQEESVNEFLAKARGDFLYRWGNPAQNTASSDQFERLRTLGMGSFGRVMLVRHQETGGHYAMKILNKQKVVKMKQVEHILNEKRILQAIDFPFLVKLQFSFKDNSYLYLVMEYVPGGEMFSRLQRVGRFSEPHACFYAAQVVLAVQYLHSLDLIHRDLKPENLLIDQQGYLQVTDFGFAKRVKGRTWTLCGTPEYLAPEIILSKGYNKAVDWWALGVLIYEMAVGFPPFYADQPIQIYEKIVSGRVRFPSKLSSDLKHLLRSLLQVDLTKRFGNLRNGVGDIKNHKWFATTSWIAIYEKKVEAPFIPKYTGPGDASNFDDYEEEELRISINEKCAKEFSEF
Chain of Chromodomain-helicase-DNA-binding protein 4 (Q14839 whole entry): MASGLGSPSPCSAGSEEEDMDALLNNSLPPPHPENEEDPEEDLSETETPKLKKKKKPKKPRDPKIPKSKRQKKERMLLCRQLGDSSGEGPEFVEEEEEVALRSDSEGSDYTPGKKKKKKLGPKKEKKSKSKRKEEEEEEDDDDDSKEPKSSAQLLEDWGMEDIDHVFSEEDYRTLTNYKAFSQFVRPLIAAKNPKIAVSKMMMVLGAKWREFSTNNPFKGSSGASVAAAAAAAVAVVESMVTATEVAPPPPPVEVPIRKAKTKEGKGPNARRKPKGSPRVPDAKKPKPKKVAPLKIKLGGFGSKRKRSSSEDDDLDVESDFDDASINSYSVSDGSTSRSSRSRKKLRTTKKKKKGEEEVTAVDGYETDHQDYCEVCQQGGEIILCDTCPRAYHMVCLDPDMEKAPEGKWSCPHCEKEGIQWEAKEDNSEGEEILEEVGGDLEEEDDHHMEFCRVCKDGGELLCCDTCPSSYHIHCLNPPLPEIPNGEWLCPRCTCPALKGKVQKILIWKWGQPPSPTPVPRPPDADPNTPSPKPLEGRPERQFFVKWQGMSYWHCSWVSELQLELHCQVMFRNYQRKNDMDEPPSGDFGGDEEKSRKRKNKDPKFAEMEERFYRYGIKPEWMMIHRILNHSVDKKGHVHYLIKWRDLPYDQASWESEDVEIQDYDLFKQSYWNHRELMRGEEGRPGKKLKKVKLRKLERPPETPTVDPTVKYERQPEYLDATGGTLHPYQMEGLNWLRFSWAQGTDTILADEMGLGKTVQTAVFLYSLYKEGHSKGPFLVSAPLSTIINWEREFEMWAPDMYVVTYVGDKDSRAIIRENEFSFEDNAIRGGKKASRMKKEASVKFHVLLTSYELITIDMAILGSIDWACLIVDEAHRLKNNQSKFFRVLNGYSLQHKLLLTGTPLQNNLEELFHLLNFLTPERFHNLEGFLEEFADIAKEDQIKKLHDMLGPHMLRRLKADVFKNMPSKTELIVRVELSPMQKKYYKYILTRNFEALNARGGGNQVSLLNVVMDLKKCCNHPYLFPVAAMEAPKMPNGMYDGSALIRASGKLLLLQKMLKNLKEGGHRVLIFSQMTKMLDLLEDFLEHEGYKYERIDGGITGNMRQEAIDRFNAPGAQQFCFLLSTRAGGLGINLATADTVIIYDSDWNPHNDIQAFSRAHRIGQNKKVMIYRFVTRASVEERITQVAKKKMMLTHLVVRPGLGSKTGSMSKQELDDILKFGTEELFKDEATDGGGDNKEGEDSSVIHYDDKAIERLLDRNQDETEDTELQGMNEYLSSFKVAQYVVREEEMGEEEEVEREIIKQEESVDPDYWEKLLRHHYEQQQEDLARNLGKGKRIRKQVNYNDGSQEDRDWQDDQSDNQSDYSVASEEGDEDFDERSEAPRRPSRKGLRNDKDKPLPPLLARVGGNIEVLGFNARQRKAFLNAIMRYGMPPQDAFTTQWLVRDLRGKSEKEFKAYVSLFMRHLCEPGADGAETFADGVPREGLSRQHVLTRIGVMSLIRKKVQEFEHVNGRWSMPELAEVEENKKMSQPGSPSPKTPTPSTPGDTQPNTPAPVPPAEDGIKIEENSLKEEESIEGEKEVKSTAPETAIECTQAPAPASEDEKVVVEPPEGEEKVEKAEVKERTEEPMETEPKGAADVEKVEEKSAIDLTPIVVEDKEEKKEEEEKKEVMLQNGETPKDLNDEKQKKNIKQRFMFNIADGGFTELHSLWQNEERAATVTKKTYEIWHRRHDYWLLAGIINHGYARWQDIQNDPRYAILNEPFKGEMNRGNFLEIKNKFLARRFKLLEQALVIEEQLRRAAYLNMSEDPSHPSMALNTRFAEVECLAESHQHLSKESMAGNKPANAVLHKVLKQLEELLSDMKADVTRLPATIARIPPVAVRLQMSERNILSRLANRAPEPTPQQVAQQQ
Chain of Serine/threonine-protein kinase B-raf (P15056 whole entry): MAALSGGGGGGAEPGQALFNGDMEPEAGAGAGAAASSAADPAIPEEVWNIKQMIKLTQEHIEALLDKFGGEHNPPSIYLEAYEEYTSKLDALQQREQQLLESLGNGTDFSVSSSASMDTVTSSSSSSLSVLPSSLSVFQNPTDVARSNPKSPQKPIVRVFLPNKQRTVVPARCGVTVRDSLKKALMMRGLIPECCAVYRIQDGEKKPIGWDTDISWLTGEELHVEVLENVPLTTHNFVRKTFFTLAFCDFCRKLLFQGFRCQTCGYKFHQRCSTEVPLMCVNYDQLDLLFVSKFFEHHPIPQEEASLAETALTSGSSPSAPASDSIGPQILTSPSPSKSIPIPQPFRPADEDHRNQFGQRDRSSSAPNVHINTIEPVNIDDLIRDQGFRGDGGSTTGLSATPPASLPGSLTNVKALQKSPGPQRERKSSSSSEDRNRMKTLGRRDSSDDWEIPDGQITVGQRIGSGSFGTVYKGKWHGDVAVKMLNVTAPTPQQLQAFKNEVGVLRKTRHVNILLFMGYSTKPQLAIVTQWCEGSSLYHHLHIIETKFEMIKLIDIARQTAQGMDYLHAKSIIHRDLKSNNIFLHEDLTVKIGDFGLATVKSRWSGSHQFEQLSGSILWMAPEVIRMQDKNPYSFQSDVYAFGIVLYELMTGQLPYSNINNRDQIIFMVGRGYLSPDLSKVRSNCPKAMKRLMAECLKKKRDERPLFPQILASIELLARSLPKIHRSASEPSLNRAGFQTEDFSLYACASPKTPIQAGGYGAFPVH
Chain of cAMP-dependent protein kinase type II-alpha regulatory subunit (P13861 whole entry): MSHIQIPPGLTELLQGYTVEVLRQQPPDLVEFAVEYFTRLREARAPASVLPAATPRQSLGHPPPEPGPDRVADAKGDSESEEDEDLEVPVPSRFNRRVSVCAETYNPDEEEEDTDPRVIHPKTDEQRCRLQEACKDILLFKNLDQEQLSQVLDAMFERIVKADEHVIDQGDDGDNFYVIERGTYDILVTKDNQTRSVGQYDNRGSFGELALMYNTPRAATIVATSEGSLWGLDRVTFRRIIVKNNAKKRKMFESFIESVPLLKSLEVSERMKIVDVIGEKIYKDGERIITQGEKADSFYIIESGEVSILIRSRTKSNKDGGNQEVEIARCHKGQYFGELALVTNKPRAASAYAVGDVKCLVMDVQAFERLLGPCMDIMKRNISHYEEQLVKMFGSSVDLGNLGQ

Consider `COc1ccc2c(OCc3nnc4ccc(-c5ccccc5)nn34)ccnc2c1` [AMG-208], for which the Kd in assay [1], in assay [2], in assay [3], in assay [4], in assay [5] and in assay [6] was > 30 µM (inactive) each time. Besides, the Kd was 0.002 µM in assay [7] and > 30 µM (inactive) in assay [8].

Regarding `O=C(NC[C@H](O)CO)c1ccncc1Nc1ccc(I)cc1F` [PIMASERTIB], the Kd in assay [1], in assay [2], in assay [3], in assay [4], in assay [5] and in assay [6] was > 30 µM (inactive) each time. The Kd in assay [7] and in assay [8] was > 30 µM (inactive) throughout.

For `c1cc(OCCN2CCCCC2)cc(-c2n[nH]c3ccc(-c4nc[nH]n4)cc23)c1` [CC-401], the Kd in assay [1], in assay [2], in assay [3], in assay [4], in assay [5] and in assay [6] was > 30 µM (inactive) throughout. Also, the Kd in assay [7] and in assay [8] was > 30 µM (inactive) each time.

As for `CC(C)CC(=O)Nc1[nH]nc2c1CN(C(=O)C1CCN(C)CC1)C2(C)C` [PHA-793887], the Kd was > 30 µM (inactive) in assay [1]; > 30 µM (inactive) in assay [2]; > 30 µM (inactive) in assay [3]; > 30 µM (inactive) in assay [4]; > 30 µM (inactive) in assay [5]; 0.003 µM in assay [6]. For the same compound, the Kd in assay [7] and in assay [8] was > 30 µM (inactive) throughout.

Take `CNC(=O)c1cc(COc2nnc(Nc3ccc(Cl)cc3)c3ccoc23)ccn1` [TELATINIB]: the Kd in assay [1], in assay [2], in assay [3], in assay [4], in assay [5] and in assay [6] was > 30 µM (inactive) throughout. Also, the Kd in assay [7] and in assay [8] was > 30 µM (inactive) each time.

`COc1cccc(Nc2ncnn3ccc(CN4CC[C@@H](N)[C@H](O)C4)c23)c1` [BMS-690514]: the Kd in assay [1], in assay [2], in assay [3], in assay [4], in assay [5] and in assay [6] was > 30 µM (inactive) each time. The Kd in assay [7] and in assay [8] was > 30 µM (inactive) throughout.

As to `C=CC(=O)Nc1cc(Nc2nccc(-c3cn(C)c4ccccc34)n2)c(OC)cc1N(C)CCN(C)C` [OSIMERTINIB], the Kd in assay [1], in assay [2], in assay [3], in assay [4], in assay [5] and in assay [6] was > 30 µM (inactive) throughout. Moreover, the Kd in assay [7] and in assay [8] was > 30 µM (inactive) each time.

Consider `COc1cc(Nc2ncc(F)c(Nc3ccc4c(n3)N(COP(=O)(O)O)C(=O)C(C)(C)O4)n2)cc(OC)c1OC` [FOSTAMATINIB], for which the equilibrium dissociation constant (Kd) in assay [1] is 1.07 µM (active); in assay [2], 0.3 µM (active); in assay [3], > 30 µM (inactive); in assay [4], > 30 µM (inactive); in assay [5], > 30 µM (inactive); in assay [6] it was > 30 µM (inactive). In addition, the Kd in assay [7] and in assay [8] was > 30 µM (inactive) throughout.

In the case of `O=C(O)c1ccc2c(c1)nc(Nc1cccc(Cl)c1)c1ccncc12` [SILMITASERTIB], the Kd in assay [1], in assay [2], in assay [3], in assay [4], in assay [5] and in assay [6] was > 30 µM (inactive) in each case. Further, the Kd in assay [7] and in assay [8] was > 30 µM (inactive) throughout.

Regarding `CCc1nc(C(N)=O)c(Nc2ccc(N3CCC(N4CCN(C)CC4)CC3)c(OC)c2)nc1NC1CCOCC1` [GILTERITINIB], the Kd in assay [1] was 0.152 µM (active); in assay [2] it was 0.184 µM; in assay [3], > 30 µM (inactive); in assay [4] it was 0.421 µM (active); in assay [5] it was > 30 µM (inactive); in assay [6] it was > 30 µM (inactive). In addition, the Kd in assay [7] and in assay [8] was > 30 µM (inactive) each time.

As for `Cc1c(NC(=O)OC[C@@H]2COCCN2)cn2ncnc(Nc3ccc4c(cnn4Cc4cccc(F)c4)c3)c12` [AC-480], the Kd in assay [1], in assay [2], in assay [3], in assay [4], in assay [5] and in assay [6] was > 30 µM (inactive) in each case. For the same compound, the Kd in assay [7] and in assay [8] was > 30 µM (inactive) throughout.

Take `O[C@H]1CC[C@H](Nc2ncc3nc(Nc4c(F)cc(F)cc4F)n([C@H]4CCOC4)c3n2)CC1` [TANZISERTIB]: the Kd in assay [1], in assay [2], in assay [3], in assay [4], in assay [5] and in assay [6] was > 30 µM (inactive) in each case. The Kd in assay [7] and in assay [8] was > 30 µM (inactive) each time.

For orientation: Kd means the equilibrium constant for the complex coming apart.
